Experimental data as given in the supplement of paper PMC10307832.

Columns and labels:
Test in all cases: relative viability (nuclei count vs DMSO), 5 days (fraction); higher = more cells survive
[1] = compound: CCN1CCN(c2ccc(Nc3cc(N(C)C(=O)Nc4c(Cl)c(OC)cc(OC)c4Cl)ncn3)cc2)CC1 [BGJ398] + CC(C)C[C@H](NC(=O)[C@H](Cc1ccccc1)NC(=O)c1cnccn1)B(O)O [Bortezomib] (partner 0.002 µM)
Summary of the method: (§1)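 One day after seeding in 1536-well plates, lung cancer cell lines were dosed by pin tool. Dosing was either single-drug or a fixed anchor-drug dose plus five library-drug doses (not always all listed) in √10 steps. After 5 days, nuclei were stained in one fix-and-stain step and counted on 4× images, and relative viability is the nuclei count of treated wells over that of vehicle wells, given as the median of duplicate plates.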

[2] = compound: C1=CC2=NC=CN=C2C=C1/C=C/3\C(=O)NC(=O)S3 + Cc1nc(NC(=O)N2CCC[C@H]2C(N)=O)sc1-c1ccnc(C(C)(C)C(F)(F)F)c1 [Alpelisib] (partner 2 µM)
Summary of the method: as §1

[3] = compound: CCN1CCN(c2ccc(Nc3cc(N(C)C(=O)Nc4c(Cl)c(OC)cc(OC)c4Cl)ncn3)cc2)CC1 [BGJ398] + CC(=O)c1c(C)c2cnc(Nc3ccc(N4CCNCC4)cn3)nc2n(C2CCCC2)c1=O [Palbociclib] (partner 0.5 µM)
Summary of the method: as §1

[4] = compound: CCN1CCN(c2ccc(Nc3cc(N(C)C(=O)Nc4c(Cl)c(OC)cc(OC)c4Cl)ncn3)cc2)CC1 [BGJ398] + NC(=O)Nc1cc(-c2cccc(F)c2)sc1C(=O)N[C@H]1CCCNC1 [AZD7762] (partner 0.2 µM)
Summary of the method: as §1

Cell Line | relative viability ([1]; first compound 0.01 µM) | relative viability ([1]; first compound 0.03162 µM) | relative viability ([1]; first compound 0.1 µM) | relative viability ([1]; first compound 0.3162 µM) | relative viability ([1]; first compound 1 µM) | relative viability ([2]; first compound 0.02 µM) | relative viability ([2]; first compound 0.06325 µM) | relative viability ([2]; first compound 0.2 µM) | relative viability ([2]; first compound 0.6325 µM) | relative viability ([2]; first compound 2 µM) | relative viability ([3]; first compound 0.01 µM) | relative viability ([3]; first compound 0.03162 µM) | relative viability ([3]; first compound 0.1 µM) | relative viability ([3]; first compound 0.3162 µM) | relative viability ([3]; first compound 1 µM) | relative viability ([4]; first compound 0.01 µM) | relative viability ([4]; first compound 0.03162 µM) | relative viability ([4]; first compound 0.1 µM) | relative viability ([4]; first compound 0.3162 µM) | relative viability ([4]; first compound 1 µM)
NCI-H460 | 1.17 | 1.23 | 1.45 | 1.04 | 1.06 | 0.508 | 0.514 | 0.464 | 0.429 | 0.379 | 0.209 | 0.169 | 0.118 | 0.206 | 0.0801 | 0.73 | 0.655 | 0.593 | 0.53 | 0.621
EKVX | 0.993 | 1.06 | 1.27 | 0.959 | 1.07 | 0.834 | 0.78 | 0.869 | 0.784 | 0.771 | 0.436 | 0.291 | 0.384 | 0.359 | 0.394 | 0.778 | 0.772 | 0.746 | 0.686 | 0.634
EPLC-272H | 0.96 | 0.816 | 0.957 | 0.841 | 0.861 | 1.05 | 1.05 | 1.01 | 0.833 | 0.939 | 0.32 | 0.314 | 0.324 | 0.359 | 0.358 | 0.209 | 0.21 | 0.252 | 0.174 | 0.306
NCI-H2126 | 1.14 | 1.1 | 1.11 | 1.11 | 1.12 | 0.662 | 0.786 | 0.752 | 0.757 | 0.639 | 0.374 | 0.344 | 0.36 | 0.351 | 0.335 | 1.08 | 1.05 | 1.05 | 1.06 | 1.03
LXF-289 | 0.951 | 0.918 | 0.918 | 0.888 | 0.896 | 0.999 | 1.01 | 1.06 | 0.984 | 1.07 | 0.584 | 0.549 | 0.564 | 0.531 | 0.552 | 1.02 | 1.03 | 1.06 | 0.978 | 1.06
NCI-H2405 | 0.976 | 0.99 | 1 | 0.98 | 0.785 | 0.692 | 0.92 | 0.872 | 0.804 | 0.703 | 0.523 | 0.586 | 0.52 | 0.553 | 0.547 | 0.84 | 0.857 | 0.781 | 0.757 | 0.656
NCI-H1755 | 1 | 0.872 | 0.975 | 0.921 | 0.875 | 0.878 | 0.824 | 0.941 | 0.888 | 0.896 | 0.464 | 0.473 | 0.461 | 0.468 | 0.441 | 0.487 | 0.496 | 0.384 | 0.339 | 0.399
HCC-78 | 0.373 | 0.59 | 0.468 | 0.472 | 0.455 | 0.287 | 0.304 | 0.378 | 0.335 | 0.294 | 0.44 | 0.472 | 0.492 | 0.455 | 0.459 | 0.609 | 0.536 | 0.557 | 0.61 | 0.608
LOU-NH91 | 0.483 | 0.498 | 0.547 | 0.54 | 0.472 | 0.721 | 0.762 | 0.676 | 0.738 | 0.728 | 0.555 | 0.544 | 0.553 | 0.559 | 0.536 | 0.753 | 0.779 | 0.752 | 0.664 | 0.762
NCI-H3122 | 1.04 | 0.998 | 1 | 1.02 | 1.09 | 0.737 | 0.854 | 0.873 | 0.766 | 0.602 | 0.174 | 0.166 | 0.175 | 0.176 | 0.227 | 0.51 | 1 | 1.04 | 1.02 | 1.17
HCC-827 | 0.942 | 0.945 | 1.08 | 0.972 | 0.973 | 1.05 | 0.947 | 1.04 | 0.925 | 0.911 | 0.26 |  | 0.469 | 0.45 | 0.518 | 0.26 |  | 0.212 | 0.121 | 0.256
NCI-H1975 | 0.431 | 0.405 | 0.404 | 0.384 | 0.319 | 0.603 | 0.778 | 0.63 | 0.574 | 0.578 | 0.575 | 0.678 | 0.672 | 0.546 | 0.417 | 0.767 | 0.711 | 0.78 | 0.666 | 0.606
NCI-H1651 | 0.909 | 0.932 | 1.05 | 1 | 0.911 | 0.888 | 1.03 | 0.986 | 0.937 | 0.996 | 0.507 | 0.561 | 0.554 | 0.54 | 0.498 | 0.465 | 0.442 | 0.478 | 0.374 | 0.471
NCI-H441 | 0.398 | 0.991 | 0.861 | 0.4 | 0.472 | 0.714 | 0.844 |  | 0.876 | 0.636 |  | 0.186 | 0.213 | 0.25 | 0.183 |  | 1.07 | 1.25 | 0.961 | 1.56
LCLC-103H | 1.15 | 1.02 | 1.07 | 0.963 | 0.875 | 0.876 | 0.906 | 1.01 | 1.03 | 0.925 | 0.42 | 0.497 | 0.457 | 0.478 | 0.518 | 0.796 | 0.86 | 0.804 | 0.658 | 0.656
LCLC-97TM1 | 0.685 | 0.492 | 0.789 | 0.529 | 0.329 | 0.234 | 0.267 | 0.294 | 0.268 | 0.178 | 0.177 | 0.221 | 0.262 | 0.197 | 0.267 | 0.251 | 0.217 | 0.225 | 0.208 | 0.249
